According to patent US10428055B2, “Substituted piperidines having GPR119 agonistic activity” (DONG-A ST CO., LTD., priority 2014, dated 2019):

Legend:
Human GPR119 = target: T1, Human GPR119 (Homo sapiens, UniProt Q8TDV5); experiment: Human GPR119 activation assay (cAMP, HTRF); type: cell-based; conditions: 1 h, HEK293 cells transiently expressing human GPR119, relative to maximum effect of OEA, read-out: hGPR119 activation ability (cAMP assay) Relative Response % vs OEA; for Emax at 0.001 µM: 1 nM; for Emax at 0.01 µM: 10 nM
T1 construct: host or cells: HEK293 (ATCC)
T1 sequence (Q8TDV5 1-335): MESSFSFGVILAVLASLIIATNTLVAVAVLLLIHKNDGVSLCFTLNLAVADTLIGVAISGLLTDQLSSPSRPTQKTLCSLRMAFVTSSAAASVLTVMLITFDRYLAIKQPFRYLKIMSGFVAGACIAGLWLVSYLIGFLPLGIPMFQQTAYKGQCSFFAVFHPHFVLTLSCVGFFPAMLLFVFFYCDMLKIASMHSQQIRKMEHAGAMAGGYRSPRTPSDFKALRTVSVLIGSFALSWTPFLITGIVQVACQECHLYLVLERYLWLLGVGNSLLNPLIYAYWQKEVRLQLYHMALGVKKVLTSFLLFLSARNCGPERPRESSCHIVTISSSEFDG
Procedure, shortened: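 HEK293 cells transiently overexpressing human GPR119 (48 h), pre-treated 10 min then exposed 60 min to compound in KRBH with 11.1 mM glucose, 0.1% BSA and 0.5 mM IBMX. Intracellular cAMP quantified by HTRF; activation expressed as % of maximal oleoylethanolamide effect from multiple-concentration testing.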

C57BL/6 mouse = experiment: Assessment of glucose tolerance improvement effect in mouse; type: in vivo; conditions: 2 h; 10 mg/kg oral, 30 min before oral glucose 2 g/kg; male C57BL/6 mouse; blood glucose AUC
Protocol: <Experimental Example 2>Assessment of glucose tolerance improvement effect in mouse
As one of anti-diabetic effect indicators, the glucose tolerance improvement effect of the above compounds was evaluated in 7-week male laboratory mouse (C57BL/6 mouse), as the effect of improving postprandial glycemic control ability.
The laboratory mouse was fasted from the day before the experiment for 16-17 hours. The compound of the present invention was orally administered 30 minutes before administrating glucose, and after 30 minutes, a glucose solution (2 g/kg/10 ml) was orally administered. A drug was prepared by suspending in a 10% Gelucire solution. At the times immediately before drug administration, immediately before glucose solution administration, 15 minutes, 30 minutes, 60 minutes, 90 minutes, and 120 minutes after glucose administration, the whole blood glucose levels was measured from tail vein using a blood glucose meter (AccuChek Active, Roche Diagnostics), and the area under the curve of a temporal blood glucose curve was calculated. From the calculated area under the blood glucose curve, the area under the blood glucose curve of a negative control group to which no glucose solution was administered was subtracted, and inhibitory activity against blood glucose increase of a control group to which only the 10% Gelucire solution and glucose solution were administered was calculated as a percentage, thereby evaluating the glucose tolerance improvement efficacy of a drug.
The results are shown in Table 3, in which the glucose tolerance improvement effect represented at a dose of 10 mg/kg was represented by classifying into three groups, under 30%, more than 30% under 40%, and more than 40%. A significant glucose tolerance improvement effect was identified in 22 compounds on which the experiment was carried out, and among those compounds, 16 compounds represented an excellent in vivo activity of 30% inhibitory dose of 10 mg/kg or less. In the following Table 3, A represents an inhibitory activity more than 40%, B represents an inhibitory activity more than 30% under 40% and C represents an inhibitory activity under 30%.

## Cc1nnc(-c2c(F)cc(OCCCC3CCN(c4nc(C(C)C)no4)CC3)cc2F)o1 [Example 55, 5-(4-(3-(3,5-difluoro-4-(5-methyl-1,3,4-oxadiazol-2-yl)phenoxy)propyl)piperidin-1-yl)-3-isopropyl-1,2,4-oxadiazole]
Human GPR119
  Emax at 0.001 µM: 168%
  Emax at 0.01 µM: 266%
C57BL/6 mouse
  inhibition in vivo at 10 mg/kg: 30 to 40%

## CC(C)c1noc(N2CCC(CCCOc3cc(F)c(-c4nnc(C(C)C)o4)c(F)c3)CC2)n1 [Example 57, 5-(4-(3-(3,5-difluoro-4-(5-isopropyl-1,3,4-oxadiazol-2-yl)phenoxy)propyl)piperidin-1-yl)-3-isopropyl-1,2,4-oxadiazole]
Human GPR119
  Emax at 0.001 µM: 255%
  Emax at 0.01 µM: 395%
C57BL/6 mouse
  inhibition in vivo at 10 mg/kg: 30 to 40%
